Where “and” joins values, the source holds several entries; their conditions need not be identical. Equal entries are not always repeated.
Columns and labels:
DIO C57BL/6J mice = experiment: chronic daily SC dosing in DIO mice (body weight, food, glucose, insulin, tissue weights); assay type: in vivo, mouse
Protocol: Body weight and food consumption were measured daily (FIGS. 8 and 9). On the last day of the study mice were fasted for 5 hours. At the end of the fasting period, glucose was measured (FIG. 6) and plasma was collected for insulin analysis. Plasma insulin was measured using an MSD kit. Fasting glucose and insulin were used to calculate the log (HOMA-IR) (FIG. 7).
Body weight was measured daily (FIG. 11). […] On the last day of the study, glucose was measured, and plasma was collected for insulin analysis. Plasma insulin was measured using an MSD kit. Glucose and insulin were used to calculate log (HOMA-IR) (FIG. 10).
DIO mice were acclimated to daily weighing and handling for approximately 1 week until their weight had stabilized. Mice were injected subcutaneously once daily with the indicated dose of peptide, or vehicle, based on current body weight. Injections were performed six hours before the dark cycle started to approximate reaching Tmax when the dark cycle started. Where indicated, 24-hour food consumption studies were performed as described above. Body weight as a percentage of initial weight was calculated daily by dividing the daily body weight by the body weight taken before the first dose of peptide, multiplied by 100%. Blood glucose was determined at study termination, and blood was collected to quantify plasma insulin concentrations. Mice were sedated by isoflurane and euthanized by decapitation. […] Plasma was stored at −80° C. until analysis. Subcutaneous and inguinal fat and the liver were removed and weighed.
DIO and ob/ob mice were acclimated to daily weighing and handling for approximately one week until weight had stabilized. […] Injections were performed six hours before the start of the dark cycle to approximate reaching Tmax when the dark cycle started. […] In both the DIO and ob/ob weight loss studies, body weight as a percentage of initial weight was calculated daily by dividing the daily body weight by the body weight taken before the first dose of peptide, multiplied by 100%. Blood glucose was determined at study termination, and blood was collected to quantify plasma insulin concentrations. Mice were sedated by isoflurane and euthanized by decapitation. […] Subcutaneous and inguinal fat and the liver were removed and weighed.

[1] = system: lean participants and participants with overweight/obesity; experiment: Phase 1 first-in-human SAD/MAD study: safety and tolerability; assay type: in vivo; details: for safety and tolerability (in words): no up-titration
Text: This was a randomized, double-blind, placebo-controlled, dose escalation first-in-human (FIH) conducted from December 2018 to January 2020 at a study center in Victoria, Australia in accordance with principles of the Declaration of Helsinki (Ethical Principles for Medical Research Involving Human Subjects), and the NHMRC National Statement on Ethical Conduct in Human Research 2007 (updated 2018). (Registered on the Australian New Zealand Clinical Trials Registry [ANZCTR] under the identifier: ACTRN12618001988246).
Daily doses were given on Day 2 to Day 14. Cohort M1 was dosed with the highest dose level, determined based on the safety and PK data from the preceding Part 1 (SAD), and doses were decreased sequentially for Cohorts M2 and M3 (FIG. 46B).
Following study drug administration, Part 1 (SAD) participants underwent safety and other assessments on Day 3 and Day 8 (±1 day, outpatient) and were followed for at least 30 days after the last administered dose of study drug. Part 2 (MAD) participants underwent safety and other assessments and discharged in the absence of clinically significant safety signals, following completion of all Day 16 assessments. All participants were followed for at least 30 days after the last administered dose of study drug. Participants were follow-up for safety and other assessments on Day 21 (±2 days, outpatient) and Day 44 (±3 days, teleconference).
The primary endpoints were the incidence, nature and severity of AEs, safety laboratory analytes, vital signs, electrocardiograms (ECGs), and incidence of events of special interest (AESI).
Adverse events were coded using the Medical Dictionary for Regulatory Activities (MedDRAR Version 21.1). The number of participants experiencing treatment-emergent AEs (TEAEs) and number of individual TEAEs are summarized by treatment, SOC, and PT. TEAEs are also summarized by severity and by relationship to study drug. AESIs are listed and summarized by treatment group. Listings of AEs leading to discontinuation of the study, SAEs and deaths, are provided as applicable.

[2] = in vivo
human GIPR = molecular target: T1, human GIPR (Homo sapiens, UniProt P48546); experiment: cAMP accumulation, SNAP-human GIPR CHO-K1 cells
T1 sequence (P48546 22-466): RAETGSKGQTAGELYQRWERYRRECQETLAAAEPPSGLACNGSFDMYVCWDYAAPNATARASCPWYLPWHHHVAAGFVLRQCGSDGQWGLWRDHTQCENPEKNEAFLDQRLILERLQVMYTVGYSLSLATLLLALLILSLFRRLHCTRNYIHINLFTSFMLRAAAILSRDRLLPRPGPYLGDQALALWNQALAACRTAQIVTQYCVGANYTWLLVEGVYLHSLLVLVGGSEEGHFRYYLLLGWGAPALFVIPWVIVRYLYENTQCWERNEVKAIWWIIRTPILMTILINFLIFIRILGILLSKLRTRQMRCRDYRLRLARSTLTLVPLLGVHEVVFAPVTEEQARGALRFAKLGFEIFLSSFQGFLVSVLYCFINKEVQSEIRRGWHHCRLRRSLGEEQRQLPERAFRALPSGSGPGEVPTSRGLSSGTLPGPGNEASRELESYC

Protocol for 1 mg/kg SC mouse: First reader's note: The heading '1 mg/kg SC mouse' is printed over the plot above the table and gives dose, route and species for the pharmacokinetic parameters.

SMILES: CCCCCCCCCCCCCCCC(=O)N[C@@H](CCC(=O)NCCCC[C@H](NC(=O)[C@H](CO)NC(=O)[C@@H]1CCCN1C(=O)[C@@H]1CCCN1C(=O)[C@@H]1CCCN1C(=O)[C@H](C)NC(=O)CNC(=O)[C@H](CO)NC(=O)[C@H](CO)NC(=O)[C@@H]1CCCN1C(=O)CNC(=O)CNC(=O)[C@H](C)NC(=O)[C@H](CC(C)C)NC(=O)[C@H](CC(C)C)NC(=O)[C@H](Cc1c[nH]c2ccccc12)NC(=O)[C@H](CC(N)=O)NC(=O)[C@@H](NC(=O)[C@H](Cc1ccccc1)NC(=O)[C@H](CCC(=O)O)NC(=O)C(C)(C)NC(=O)[C@H](C)NC(=O)[C@H](C)NC(=O)[C@H](CCC(N)=O)NC(=O)[C@H](CCCCN)NC(=O)[C@H](CC(=O)O)NC(=O)[C@H](CC(C)C)NC(=O)[C@H](Cc1ccc(O)cc1)NC(=O)[C@@H](NC(=O)[C@H](CO)NC(=O)[C@H](Cc1ccc(O)cc1)NC(=O)[C@H](CC(=O)O)NC(=O)[C@H](CO)NC(=O)[C@@H](NC(=O)[C@H](Cc1ccccc1)NC(=O)[C@@H](NC(=O)CNC(=O)[C@H](CCC(=O)O)NC(=O)CSCC(=O)NCCN1C(=O)CSC1=O)[C@@H](C)O)[C@@H](C)O)[C@@H](C)CC)C(C)C)C(N)=O)C(=O)O [CT-859]
- adipose tissue weight vs liraglutide (in words) (DIO C57BL/6J mice): decreases adipose tissue weight more than liraglutide
- body weight vs liraglutide (in words) (DIO C57BL/6J mice; 20 and 200 nmol/kg): decreases body weight more than liraglutide at non-GIPR and GIPR engaging doses
- body weight decreased compared to liraglutide, end of study (DIO C57BL/6J mice; DIO mice, 20 nmol/kg, 19 days): 8%
- body weight decreased compared to vehicle, end of study (DIO C57BL/6J mice; DIO mice, 20 nmol/kg, 19 days): 20%
- fasting glucose (in words) (DIO C57BL/6J mice; DIO mice, 20 nmol/kg, 19 days): lowered fasting glucose more than liraglutide
- inguinal adipose weight lower than vehicle (DIO C57BL/6J mice; DIO mice, 20 nmol/kg, 19 days): 39%
- cumulative food intake vs liraglutide (in words) (DIO C57BL/6J mice; DIO mice, 20 nmol/kg, 20 days): without significant difference in cumulative food intake
- fasting GLUC (DIO C57BL/6J mice; DIO mice, 20 nmol/kg, 20 days): 146.5 mg/dL
- weight loss (WL) (DIO C57BL/6J mice; DIO mice, 20 nmol/kg, 20 days): −16.5%
- insulin resistance log (HOMA-IR) (DIO C57BL/6J mice; DIO mice, 20 nmol/kg, 20 days, fasted): 0.74
- adipose weight (in words) (DIO C57BL/6J mice; DIO mice, 200 nmol/kg, 19 days): decreased inguinal and epididymal adipose weight more than liraglutide
- body weight decreased compared to liraglutide, end of study (DIO C57BL/6J mice; DIO mice, 200 nmol/kg, 19 days): 14%
- body weight decreased compared to vehicle, end of study (DIO C57BL/6J mice; DIO mice, 200 nmol/kg, 19 days): 33% and ~35%
- fed glucose levels (in words) (DIO C57BL/6J mice; DIO mice, 200 nmol/kg, 19 days): decreased fed glucose levels more than the vehicle
- nonfasted log (HOMA-IR) (DIO C57BL/6J mice; DIO mice, 200 nmol/kg, 20 days): 1.17
- weight loss (WL) (DIO C57BL/6J mice; DIO mice, 200 nmol/kg, 20 days): −30.1%
- food consumption lowered compared to liraglutide (DIO C57BL/6J mice; DIO mice, 200 nmol/kg, after 7 days of dosing): 39%
- food intake (DIO C57BL/6J mice; DIO mice, 200 nmol/kg, day 7): 1.2 g
- food intake (DIO C57BL/6J mice; DIO mice, 200 nmol/kg, day 14): 1.7 g
- additional weight loss over liraglutide (DIO C57BL/6J mice; DIO mice, GIPR-engaging dose): 10%
- AUClast (1 mg/kg SC mouse): 3.579 µM·h
- Tmax (1 mg/kg SC mouse): 4.0 h

SMILES: CCCCCCCCCCCCCCCC(=O)N[C@@H](CCC(=O)NCCCC[C@H](NC(=O)[C@H](CO)NC(=O)[C@@H]1CCCN1C(=O)[C@@H]1CCCN1C(=O)[C@@H]1CCCN1C(=O)[C@H](C)NC(=O)CNC(=O)[C@H](CO)NC(=O)[C@H](CO)NC(=O)[C@@H]1CCCN1C(=O)CNC(=O)CNC(=O)[C@H](C)NC(=O)[C@H](CC(C)C)NC(=O)[C@H](CC(C)C)NC(=O)[C@H](Cc1c[nH]c2ccccc12)NC(=O)[C@H](CC(N)=O)NC(=O)[C@@H](NC(=O)[C@H](Cc1ccccc1)NC(=O)[C@H](CCC(=O)O)NC(=O)C(C)(C)NC(=O)[C@H](C)NC(=O)[C@H](C)NC(=O)[C@H](CCC(N)=O)NC(=O)[C@H](CCCCN)NC(=O)[C@H](CC(=O)O)NC(=O)[C@H](CC(C)C)NC(=O)[C@H](Cc1ccc(O)cc1)NC(=O)[C@@H](NC(=O)[C@H](CO)NC(=O)[C@H](Cc1ccc(O)cc1)NC(=O)[C@H](CC(=O)O)NC(=O)[C@H](CO)NC(=O)[C@@H](NC(=O)[C@H](Cc1ccccc1)NC(=O)[C@@H](NC(=O)CNC(=O)[C@H](CCC(=O)O)NC(=O)CSCC(=O)NCCN1CCCCC1=O)[C@@H](C)O)[C@@H](C)O)[C@@H](C)CC)C(C)C)C(N)=O)C(=O)O [CT-868]
- participants reporting only nausea ([1]; MAD 0.75 mg): 2/6
- participants with abdominal pain ([1]; MAD 1.5 mg): 1/6
- participants with constipation ([1]; MAD 1.5 mg): 4/6
- participants with diarrhea ([1]; MAD 1.5 mg): 1/6
- participants with gastrointestinal symptoms ([1]; MAD 1.5 mg): 4/6
- participants with nausea ([1]; MAD 1.5 mg): 2/6
- participants with vomiting ([1]; MAD 1.5 mg): 2/6
- mild to moderate gastrointestinal symptoms (in words) ([1]; MAD 5.0 mg): reported by all six participants
- drug withdrawal due to drug-related TEAEs (in words) ([1]; MAD 5.0 mg, mild nausea and vomiting): One participant
- maximum tolerated single dose ([1]; SAD): 7.5 mg
- participants with drug-related TEAEs ([1]; SAD 7.5 mg, two events of nausea and one of diarrhea): 50%
- participants with gastrointestinal TEAEs ([1]; SAD 11.0 mg, twelve events, all drug-related): 100%
- SAEs and drug-induced hypoglycemia (in words) ([1]; SAD and MAD phases): no serious adverse events (SAEs) or drug-induced hypoglycemia events
- safety and tolerability (in words) ([1]; single doses up to 7.5 mg, up to 1.5 mg/day for 14 days): generally safe and well tolerated
- safety and tolerability (in words) ([1]; up to 11 mg single dose, up to 5 mg/day for 14 days): safe and well tolerated
- highest tested dose exceeds pharmacologically active dose by [2]: 100 fold
- vomiting (in words) [2]: no instances of vomiting
- Emax (human GIPR; CHO-K1, read-out: hGIPR cAMP (-alb) % Emax): 41%
- EC50 (human GIPR; potency activating cAMP at human GIPR, value of b126): ~3.3 nM

Reference: US20240366728A1, “Treatment of Diabetes Mellitus” (Carmot Therapeutics Inc., priority 2023, published 2024)
